According to ChEMBL document CHEMBL4507304, “Data for DCP probe TP-021” (2021):

Key:
[1] = system: Tyrosine-protein kinase ABL1 (Homo sapiens), P00519 [F317L]; settings: Compound concentration 1000.0 nM
[2] = target: RAC-beta serine/threonine-protein kinase (Homo sapiens) (UniProt P31751); settings: Compound concentration 1000.0 nM
[3] = target: Aurora kinase B (Homo sapiens) (UniProt Q96GD4); settings: Compound concentration 1000.0 nM
[4] = target: Cyclin-dependent kinase 11A (Homo sapiens) (UniProt Q9UQ88); settings: Compound concentration 1000.0 nM
[5] = target: Cyclin-dependent kinase 13 (Homo sapiens) (UniProt Q14004); settings: Compound concentration 1000.0 nM
[6] = target: Cyclin-dependent kinase 8 (Homo sapiens) (UniProt P49336); settings: Compound concentration 1000.0 nM
[7] = target: Cyclin-dependent kinase-like 2 (Homo sapiens) (UniProt Q92772); settings: Compound concentration 1000.0 nM
[8] = target: Casein kinase I isoform alpha-like (Homo sapiens) (UniProt Q8N752); settings: Compound concentration 1000.0 nM
[9] = system: Epidermal growth factor receptor (Homo sapiens), P00533 [UNDEFINED MUTATION]; settings: Compound concentration 1000.0 nM
[10] = system: Epidermal growth factor receptor (Homo sapiens), P00533 [G719C]; settings: Compound concentration 1000.0 nM
[11] = system: Epidermal growth factor receptor (Homo sapiens), P00533 [T790M]; settings: Compound concentration 1000.0 nM
[12] = target: Ephrin type-A receptor 7 (Homo sapiens) (UniProt Q15375); settings: Compound concentration 1000.0 nM
[13] = target: Tyrosine-protein kinase Fer (Homo sapiens) (UniProt P16591); settings: Compound concentration 1000.0 nM
[14] = target: Fibroblast growth factor receptor 4 (Homo sapiens) (UniProt P22455); settings: Compound concentration 1000.0 nM
[15] = system: Receptor-type tyrosine-protein kinase FLT3 (Homo sapiens), P36888 [D835H]; settings: Compound concentration 1000.0 nM
[16] = system: Receptor-type tyrosine-protein kinase FLT3 (Homo sapiens), P36888 [K663Q]; settings: Compound concentration 1000.0 nM
[17] = target: Inhibitor of nuclear factor kappa-B kinase subunit beta (Homo sapiens) (UniProt O14920); settings: Compound concentration 1000.0 nM
[18] = target: Tyrosine-protein kinase ITK/TSK (Homo sapiens) (UniProt Q08881); settings: Compound concentration 1000.0 nM
[19] = system: Mast/stem cell growth factor receptor Kit (Homo sapiens), P10721 [L576P]; settings: Compound concentration 1000.0 nM
[20] = target: Serine/threonine-protein kinase LATS1 (Homo sapiens) (UniProt O95835); settings: Compound concentration 1000.0 nM
[21] = system: Leucine-rich repeat serine/threonine-protein kinase 2 (Homo sapiens), Q5S007 [G2019S]; settings: Compound concentration 1000.0 nM
[22] = target: Leukocyte tyrosine kinase receptor (Homo sapiens) (UniProt P29376); settings: Compound concentration 1000.0 nM
[23] = target: MAP/microtubule affinity-regulating kinase 3 (Homo sapiens) (UniProt P27448); settings: Compound concentration 1000.0 nM
[24] = target: Hepatocyte growth factor receptor (Homo sapiens) (UniProt P08581); settings: Compound concentration 1000.0 nM
[25] = system: Hepatocyte growth factor receptor (Homo sapiens), P08581 [M1250T]; settings: Compound concentration 1000.0 nM
[26] = target: Myosin light chain kinase, smooth muscle (Homo sapiens) (UniProt Q15746); settings: Compound concentration 1000.0 nM
[27] = target: Serine/threonine-protein kinase Nek4 (Homo sapiens) (UniProt P51957); settings: Compound concentration 1000.0 nM
[28] = system: Phosphatidylinositol 4,5-bisphosphate 3-kinase catalytic subunit alpha isoform (Homo sapiens), P42336 [H1047Y]; settings: Compound concentration 1000.0 nM
[29] = target: Serine/threonine-protein kinase pim-1 (Homo sapiens) (UniProt P11309); settings: Compound concentration 1000.0 nM
[30] = target: Serine/threonine-protein kinase pim-2 (Homo sapiens) (UniProt Q9P1W9); settings: Compound concentration 1000.0 nM
[31] = target: Serine/threonine-protein kinase pim-3 (Homo sapiens) (UniProt Q86V86); settings: Compound concentration 1000.0 nM
[32] = target: Serine/threonine-protein kinase PLK2 (Homo sapiens) (UniProt Q9NYY3); settings: Compound concentration 1000.0 nM
[33] = target: Protein kinase C theta type (Homo sapiens) (UniProt Q04759); settings: Compound concentration 1000.0 nM
[34] = target: Proto-oncogene tyrosine-protein kinase receptor Ret (Homo sapiens) (UniProt P07949); settings: Compound concentration 1000.0 nM
[35] = target: Ribosomal protein S6 kinase alpha-5 (Homo sapiens) (UniProt O75582); settings: Compound concentration 1000.0 nM
[36] = target: Ribosomal protein S6 kinase alpha-2 (Homo sapiens) (UniProt Q15349); settings: Compound concentration 1000.0 nM
[37] = target: Ribosomal protein S6 kinase alpha-6 (Homo sapiens) (UniProt Q9UK32); settings: Compound concentration 1000.0 nM
[38] = target: Serine/threonine-protein kinase SIK2 (Homo sapiens) (UniProt Q9H0K1); settings: Compound concentration 1000.0 nM
[39] = target: NUAK family SNF1-like kinase 2 (Homo sapiens) (UniProt Q9H093); settings: Compound concentration 1000.0 nM
[40] = target: Tyrosine-protein kinase TXK (Homo sapiens) (UniProt P42681); settings: Compound concentration 1000.0 nM
[41] = target: Phosphatidylinositol 3-kinase catalytic subunit type 3 (Homo sapiens) (UniProt Q8NEB9); settings: Compound concentration 1000.0 nM
[42] = target: Mitogen-activated protein kinase kinase kinase 19 (Homo sapiens) (UniProt Q56UN5); settings: Compound concentration 1000.0 nM
[43] = target: Sodium-dependent dopamine transporter (Homo sapiens) (UniProt Q01959); settings: Compound concentration 10.0 uM
[44] = target: Alpha-2A adrenergic receptor (Homo sapiens) (UniProt P08913); settings: Compound concentration 10.0 uM
[45] = target: Muscarinic acetylcholine receptor M5 (Homo sapiens) (UniProt P08912); settings: Compound concentration 10.0 uM

Sequence of Serine/threonine-protein kinase LATS1 (Homo sapiens) (O95835 whole entry): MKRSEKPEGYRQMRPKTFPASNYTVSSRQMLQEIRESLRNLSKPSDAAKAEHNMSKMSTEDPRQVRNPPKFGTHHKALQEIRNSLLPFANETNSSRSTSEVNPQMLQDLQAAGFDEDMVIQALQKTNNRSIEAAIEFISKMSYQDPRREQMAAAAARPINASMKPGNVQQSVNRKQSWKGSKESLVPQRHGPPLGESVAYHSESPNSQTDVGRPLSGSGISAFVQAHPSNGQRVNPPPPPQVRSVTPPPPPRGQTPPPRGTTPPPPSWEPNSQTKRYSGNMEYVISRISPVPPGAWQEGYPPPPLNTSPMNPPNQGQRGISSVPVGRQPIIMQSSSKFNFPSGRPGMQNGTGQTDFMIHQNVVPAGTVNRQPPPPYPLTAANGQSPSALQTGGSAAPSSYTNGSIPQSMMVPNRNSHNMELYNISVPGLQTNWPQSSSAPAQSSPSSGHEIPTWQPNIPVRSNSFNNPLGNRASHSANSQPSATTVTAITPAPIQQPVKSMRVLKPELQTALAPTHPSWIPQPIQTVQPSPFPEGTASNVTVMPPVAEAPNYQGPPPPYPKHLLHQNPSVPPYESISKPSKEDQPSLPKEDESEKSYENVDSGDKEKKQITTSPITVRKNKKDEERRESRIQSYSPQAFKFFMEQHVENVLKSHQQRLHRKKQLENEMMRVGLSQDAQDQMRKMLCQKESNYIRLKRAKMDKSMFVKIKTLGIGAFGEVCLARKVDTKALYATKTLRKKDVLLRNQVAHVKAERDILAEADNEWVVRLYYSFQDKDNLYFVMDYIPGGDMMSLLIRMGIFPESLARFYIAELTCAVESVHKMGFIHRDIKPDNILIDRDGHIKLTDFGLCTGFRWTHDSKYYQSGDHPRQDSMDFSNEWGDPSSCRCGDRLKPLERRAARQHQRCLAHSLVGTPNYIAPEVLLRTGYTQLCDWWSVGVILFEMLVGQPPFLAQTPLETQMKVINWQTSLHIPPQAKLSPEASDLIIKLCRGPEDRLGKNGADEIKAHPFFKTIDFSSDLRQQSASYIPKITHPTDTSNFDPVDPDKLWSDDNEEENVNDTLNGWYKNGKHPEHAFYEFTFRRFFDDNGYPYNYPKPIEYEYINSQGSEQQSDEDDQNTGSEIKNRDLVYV
Sequence of Phosphatidylinositol 3-kinase catalytic subunit type 3 (Homo sapiens) (Q8NEB9 whole entry): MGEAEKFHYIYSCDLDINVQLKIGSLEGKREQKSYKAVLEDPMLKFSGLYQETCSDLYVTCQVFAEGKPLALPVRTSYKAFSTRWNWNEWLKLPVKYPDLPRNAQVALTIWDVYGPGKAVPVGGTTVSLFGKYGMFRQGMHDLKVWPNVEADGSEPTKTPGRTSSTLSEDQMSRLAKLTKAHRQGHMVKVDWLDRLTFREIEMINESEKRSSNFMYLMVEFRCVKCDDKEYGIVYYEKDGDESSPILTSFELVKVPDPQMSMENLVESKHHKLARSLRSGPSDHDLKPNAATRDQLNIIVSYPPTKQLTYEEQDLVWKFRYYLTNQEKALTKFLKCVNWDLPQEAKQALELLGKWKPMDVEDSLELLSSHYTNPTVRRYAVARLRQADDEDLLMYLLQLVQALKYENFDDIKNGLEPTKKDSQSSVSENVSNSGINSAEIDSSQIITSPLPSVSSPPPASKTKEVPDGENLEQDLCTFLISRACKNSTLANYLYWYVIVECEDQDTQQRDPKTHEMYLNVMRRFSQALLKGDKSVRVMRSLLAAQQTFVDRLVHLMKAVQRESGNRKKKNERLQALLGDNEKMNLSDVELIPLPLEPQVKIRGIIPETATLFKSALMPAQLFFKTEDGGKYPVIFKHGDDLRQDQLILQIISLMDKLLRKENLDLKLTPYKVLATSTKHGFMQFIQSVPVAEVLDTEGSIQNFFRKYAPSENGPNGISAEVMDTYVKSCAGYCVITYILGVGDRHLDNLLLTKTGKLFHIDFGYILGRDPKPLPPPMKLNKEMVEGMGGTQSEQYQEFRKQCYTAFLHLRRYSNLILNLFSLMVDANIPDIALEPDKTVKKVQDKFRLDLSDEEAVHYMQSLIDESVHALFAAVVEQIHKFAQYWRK
Sequence of Ephrin type-A receptor 7 (Homo sapiens) (Q15375 28-998 limits assumed): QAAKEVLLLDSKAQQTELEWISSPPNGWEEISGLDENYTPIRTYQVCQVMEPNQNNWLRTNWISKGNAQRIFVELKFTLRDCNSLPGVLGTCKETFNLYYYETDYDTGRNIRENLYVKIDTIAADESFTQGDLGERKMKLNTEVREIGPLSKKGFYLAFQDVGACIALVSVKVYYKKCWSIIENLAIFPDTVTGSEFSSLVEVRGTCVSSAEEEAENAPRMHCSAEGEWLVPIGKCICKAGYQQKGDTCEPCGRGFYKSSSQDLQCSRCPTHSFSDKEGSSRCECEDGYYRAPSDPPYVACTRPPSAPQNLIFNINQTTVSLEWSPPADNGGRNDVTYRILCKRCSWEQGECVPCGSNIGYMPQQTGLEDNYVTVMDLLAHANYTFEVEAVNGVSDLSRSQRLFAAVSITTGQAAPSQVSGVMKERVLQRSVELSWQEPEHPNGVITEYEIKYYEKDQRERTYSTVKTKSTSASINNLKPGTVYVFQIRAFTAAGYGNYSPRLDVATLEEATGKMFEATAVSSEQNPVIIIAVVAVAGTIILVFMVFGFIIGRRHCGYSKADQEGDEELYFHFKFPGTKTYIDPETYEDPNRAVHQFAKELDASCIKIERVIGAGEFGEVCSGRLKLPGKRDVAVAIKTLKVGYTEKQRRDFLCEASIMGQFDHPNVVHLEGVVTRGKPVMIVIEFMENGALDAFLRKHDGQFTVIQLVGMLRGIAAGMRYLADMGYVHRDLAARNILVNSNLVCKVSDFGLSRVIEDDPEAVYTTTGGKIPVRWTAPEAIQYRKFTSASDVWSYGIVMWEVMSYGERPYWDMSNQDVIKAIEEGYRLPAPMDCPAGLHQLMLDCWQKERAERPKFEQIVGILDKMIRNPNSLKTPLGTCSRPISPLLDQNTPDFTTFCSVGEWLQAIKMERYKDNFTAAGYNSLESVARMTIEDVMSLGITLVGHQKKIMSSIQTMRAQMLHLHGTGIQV
Sequence of Inhibitor of nuclear factor kappa-B kinase subunit beta (Homo sapiens) (O14920 whole entry): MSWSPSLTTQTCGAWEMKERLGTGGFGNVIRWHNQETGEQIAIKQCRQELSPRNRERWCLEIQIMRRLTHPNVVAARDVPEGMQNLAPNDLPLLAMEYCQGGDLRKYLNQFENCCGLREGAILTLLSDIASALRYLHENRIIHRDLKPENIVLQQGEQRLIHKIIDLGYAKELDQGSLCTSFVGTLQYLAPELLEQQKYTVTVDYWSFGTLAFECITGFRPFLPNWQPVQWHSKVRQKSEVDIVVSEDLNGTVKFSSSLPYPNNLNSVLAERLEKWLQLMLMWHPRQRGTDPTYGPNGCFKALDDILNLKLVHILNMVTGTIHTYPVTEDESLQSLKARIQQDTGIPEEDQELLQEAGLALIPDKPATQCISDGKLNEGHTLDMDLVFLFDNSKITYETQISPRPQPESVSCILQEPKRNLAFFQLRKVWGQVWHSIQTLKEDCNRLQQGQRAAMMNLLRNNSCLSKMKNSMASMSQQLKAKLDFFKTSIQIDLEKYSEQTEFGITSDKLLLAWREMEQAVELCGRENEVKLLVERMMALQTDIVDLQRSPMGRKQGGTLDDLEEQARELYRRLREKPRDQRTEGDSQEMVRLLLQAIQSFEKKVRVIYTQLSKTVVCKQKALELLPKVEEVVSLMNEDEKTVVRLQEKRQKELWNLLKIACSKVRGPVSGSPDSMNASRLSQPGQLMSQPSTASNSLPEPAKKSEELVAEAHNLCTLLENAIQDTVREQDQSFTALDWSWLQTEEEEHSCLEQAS
Sequence of NUAK family SNF1-like kinase 2 (Homo sapiens) (Q9H093 whole entry): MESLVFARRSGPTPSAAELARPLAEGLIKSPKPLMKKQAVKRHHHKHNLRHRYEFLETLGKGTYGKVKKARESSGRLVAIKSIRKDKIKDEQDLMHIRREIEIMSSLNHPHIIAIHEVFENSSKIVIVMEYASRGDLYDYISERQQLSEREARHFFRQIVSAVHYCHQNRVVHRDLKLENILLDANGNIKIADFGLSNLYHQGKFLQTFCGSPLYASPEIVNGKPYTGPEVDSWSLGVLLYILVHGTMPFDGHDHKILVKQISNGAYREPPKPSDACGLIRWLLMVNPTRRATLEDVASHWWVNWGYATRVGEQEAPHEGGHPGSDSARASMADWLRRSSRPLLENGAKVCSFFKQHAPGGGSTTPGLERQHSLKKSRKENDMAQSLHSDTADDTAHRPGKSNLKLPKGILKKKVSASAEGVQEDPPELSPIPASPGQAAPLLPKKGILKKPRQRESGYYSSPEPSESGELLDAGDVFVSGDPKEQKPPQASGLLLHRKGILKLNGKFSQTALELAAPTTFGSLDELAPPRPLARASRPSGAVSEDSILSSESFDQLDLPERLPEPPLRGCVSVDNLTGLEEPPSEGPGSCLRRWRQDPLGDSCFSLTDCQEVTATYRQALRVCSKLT
Sequence of Tyrosine-protein kinase TXK (Homo sapiens) (P42681 whole entry): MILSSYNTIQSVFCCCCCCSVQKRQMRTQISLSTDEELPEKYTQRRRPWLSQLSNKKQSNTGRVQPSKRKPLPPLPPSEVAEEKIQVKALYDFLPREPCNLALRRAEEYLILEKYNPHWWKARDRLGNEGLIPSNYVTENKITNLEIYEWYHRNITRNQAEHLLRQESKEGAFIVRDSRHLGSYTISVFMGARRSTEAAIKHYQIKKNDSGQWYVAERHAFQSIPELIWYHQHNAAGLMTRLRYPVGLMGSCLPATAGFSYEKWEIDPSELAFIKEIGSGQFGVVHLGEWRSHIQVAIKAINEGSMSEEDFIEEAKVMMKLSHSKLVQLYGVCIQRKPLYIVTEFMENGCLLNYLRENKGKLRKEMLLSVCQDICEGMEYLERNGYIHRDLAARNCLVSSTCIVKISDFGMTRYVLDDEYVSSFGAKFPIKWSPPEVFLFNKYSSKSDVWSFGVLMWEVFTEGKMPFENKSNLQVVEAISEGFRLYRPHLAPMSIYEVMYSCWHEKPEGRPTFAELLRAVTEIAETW

N#Cc1ccc(Nc2ccc3[nH]c(=O)[nH]c3c2)c(Cl)c1
inactive: residual activity [1] 84% | residual activity [2] 89% | residual activity [3] 85% | residual activity [4] 97% | residual activity [5] 100% | residual activity [6] 100% | residual activity [7] 100% | residual activity [8] 100% | residual activity [9] 100% | residual activity [10] 100% | residual activity [11] 91% | residual activity [12] 100% | residual activity [13] 100% | residual activity [14] 100% | residual activity [15] 100% | residual activity [16] 92% | residual activity [17] 89% | residual activity [18] 100% | residual activity [19] 89% | residual activity [20] 76% | residual activity [21] 93% | residual activity [22] 100% | residual activity [23] 100% | residual activity [24] 94% | residual activity [25] 100% | residual activity [26] 96% | residual activity [27] 100% | residual activity [28] 100% | residual activity [29] 90% | residual activity [30] 83% | residual activity [31] 100% | residual activity [32] 86% | residual activity [33] 90% | residual activity [34] 97% | residual activity [35] 100% | residual activity [36] 100% | residual activity [37] 100% | residual activity [38] 100% | residual activity [39] 100% | residual activity [40] 87% | residual activity [41] 100% | residual activity [42] 100% | inhibition [43] 14% | inhibition [44] 2.09% | inhibition [45] 12.6%

O=C1CCc2cc(Nc3cc(OC4CCOCC4)c([N+](=O)[O-])cc3Cl)ccc2N1
inactive: residual activity [1] 88% | residual activity [2] 82% | residual activity [3] 86% | residual activity [4] 100% | residual activity [5] 100% | residual activity [6] 100% | residual activity [7] 92% | residual activity [8] 84% | residual activity [9] 100% | residual activity [10] 100% | residual activity [11] 85% | residual activity [12] 75% | residual activity [13] 100% | residual activity [14] 81% | residual activity [15] 99% | residual activity [16] 100% | residual activity [17] 100% | residual activity [18] 95% | residual activity [19] 100% | residual activity [20] 81% | residual activity [21] 100% | residual activity [22] 100% | residual activity [23] 100% | residual activity [24] 80% | residual activity [25] 93% | residual activity [26] 94% | residual activity [27] 100% | residual activity [28] 100% | residual activity [29] 96% | residual activity [30] 84% | residual activity [31] 100% | residual activity [32] 92% | residual activity [33] 92% | residual activity [34] 89% | residual activity [35] 100% | residual activity [36] 100% | residual activity [37] 91% | residual activity [38] 100% | residual activity [39] 89% | residual activity [40] 79% | residual activity [41] 100% | residual activity [42] 100% | inhibition [43] 13.6% | inhibition [44] 4.66% | inhibition [45] 12.6%
